Source: ChEMBL document CHEMBL1201862, “PubChem BioAssay data set” (2004)
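Assay format: 96-well plates, 48-hour exposure. GI50 marks 50% less growth.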 Calls of active or inactive are those of the source. Cut-off read from the data, not from the text of the source: active = GI50 up to about 1.1 µM and inactive = higher.

Columns and labels:
Assay in all cases: inhibition of tumour cell growth, NCI panel, 48 h
786-0 = system: 786-0
OVCAR-8 = system: OVCAR-8
OVCAR-3 = system: OVCAR-3
HCC 2998 = system: HCC 2998
U-251 = system: U-251
RXF 393 = system: RXF 393
TK-10 = system: TK-10
KM-20L2 = system: KM-20L2
RPMI-8226 = system: RPMI-8226
SK-MEL-5 = system: SK-MEL-5
UACC-62 = system: UACC-62
UO-31 = system: UO-31
NCI-H23 = system: NCI-H23
SW-620 = system: SW-620
EKVX = system: EKVX
CAKI-1 = system: CAKI-1
HCT-15 = system: HCT-15

Structure (SMILES): COc1cc(/C=C2/C(=O)N(C(=O)OCC(C)C)C(Cc3cc(OC)c(OC)c(C)c3OC)C(=O)N2Cc2ccccc2)c(OC)c(C)c1OC (stereo not given)
- GI50 (786-0): > 100 µM (inactive)
- GI50 (OVCAR-8): > 100 µM (inactive)
- GI50 (OVCAR-3): 79.4 µM (inactive)
- GI50 (HCC 2998): > 100 µM (inactive)
- GI50 (U-251): > 100 µM (inactive)
- GI50 (RXF 393): > 100 µM (inactive)
- GI50 (TK-10): > 100 µM (inactive)
- GI50 (KM-20L2): > 100 µM (inactive)
- GI50 (RPMI-8226): 21.8 µM (inactive)
- GI50 (SK-MEL-5): 74.6 µM (inactive)
- GI50 (UACC-62): > 100 µM (inactive)
- GI50 (UO-31): 11.6 µM (inactive)
- GI50 (NCI-H23): > 100 µM (inactive)
- GI50 (SW-620): > 100 µM (inactive)
- GI50 (EKVX): 72.1 µM (inactive)
- GI50 (CAKI-1): > 100 µM (inactive)

Structure (SMILES): Cc1[nH]c2ccccc2c1-c1n[nH]c(=O)c2ccccc12
- GI50 (786-0): 27 µM (inactive)
- GI50 (OVCAR-8): 32.5 µM (inactive)
- GI50 (OVCAR-3): 23.3 µM (inactive)
- GI50 (HCC 2998): 30.4 µM (inactive)
- GI50 (U-251): 31.5 µM (inactive)
- GI50 (RXF 393): 12.9 µM (inactive)
- GI50 (TK-10): 37.1 µM (inactive)
- GI50 (KM-20L2): 25.2 µM (inactive)
- GI50 (RPMI-8226): 20.8 µM (inactive)
- GI50 (SK-MEL-5): 15.5 µM (inactive)
- GI50 (UACC-62): 19.5 µM (inactive)
- GI50 (UO-31): 17.3 µM (inactive)
- GI50 (NCI-H23): 26 µM (inactive)
- GI50 (HCT-15): 5.33 µM
- GI50 (SW-620): 16.1 µM (inactive)
- GI50 (EKVX): 17.9 µM (inactive)
- GI50 (CAKI-1): 13.4 µM (inactive)

Structure (SMILES): CN(C)CC1(C)CC/C(=C\c2ccc3c(c2)OCO3)C1=O (stereo not given)
- GI50 (786-0): > 100 µM (inactive)
- GI50 (OVCAR-8): > 100 µM (inactive)
- GI50 (OVCAR-3): > 100 µM (inactive)
- GI50 (HCC 2998): > 100 µM (inactive)
- GI50 (U-251): > 100 µM (inactive)
- GI50 (RXF 393): > 100 µM (inactive)
- GI50 (TK-10): > 100 µM (inactive)
- GI50 (KM-20L2): 3.72 µM (inactive)
- GI50 (RPMI-8226): 27.5 µM (inactive)
- GI50 (SK-MEL-5): > 100 µM (inactive)
- GI50 (UACC-62): 67.3 µM (inactive)
- GI50 (UO-31): > 100 µM (inactive)
- GI50 (NCI-H23): > 100 µM (inactive)
- GI50 (HCT-15): > 100 µM
- GI50 (SW-620): 92.9 µM (inactive)
- GI50 (CAKI-1): 6.58 µM (inactive)

Structure (SMILES): COC(=O)c1ccccc1N1C(=O)Cc2ccccc2C1=O
- GI50 (786-0): 66.1 µM (inactive)
- GI50 (OVCAR-8): 75.9 µM (inactive)
- GI50 (OVCAR-3): 35.6 µM (inactive)
- GI50 (HCC 2998): > 100 µM (inactive)
- GI50 (U-251): > 100 µM (inactive)
- GI50 (RXF 393): 42.3 µM (inactive)
- GI50 (TK-10): > 100 µM (inactive)
- GI50 (KM-20L2): > 100 µM (inactive)
- GI50 (RPMI-8226): > 100 µM (inactive)
- GI50 (SK-MEL-5): > 100 µM (inactive)
- GI50 (UACC-62): 72.6 µM (inactive)
- GI50 (UO-31): > 100 µM (inactive)
- GI50 (NCI-H23): > 100 µM (inactive)
- GI50 (HCT-15): > 100 µM
- GI50 (SW-620): > 100 µM (inactive)
- GI50 (EKVX): > 100 µM (inactive)

Structure (SMILES): CCOC(=O)/C=C1\CCCC12OCCO2
- GI50 (786-0): > 100 µM (inactive)
- GI50 (OVCAR-8): 89.5 µM (inactive)
- GI50 (OVCAR-3): 28 µM (inactive)
- GI50 (HCC 2998): > 100 µM (inactive)
- GI50 (U-251): > 100 µM (inactive)
- GI50 (RXF 393): > 100 µM (inactive)
- GI50 (TK-10): > 100 µM (inactive)
- GI50 (KM-20L2): > 100 µM (inactive)
- GI50 (RPMI-8226): 49.7 µM (inactive)
- GI50 (SK-MEL-5): > 100 µM (inactive)
- GI50 (UACC-62): > 100 µM (inactive)
- GI50 (UO-31): > 100 µM (inactive)
- GI50 (HCT-15): > 100 µM
- GI50 (SW-620): > 100 µM (inactive)
- GI50 (CAKI-1): > 100 µM (inactive)

Structure (SMILES): CSc1nc2c(nc(N)n2C2OC(COC(C)=O)C(OC(C)=O)C(OC(C)=O)C2OC(C)=O)c(=O)n1C (stereo not given)
- GI50 (786-0): > 100 µM (inactive)
- GI50 (OVCAR-8): > 100 µM (inactive)
- GI50 (OVCAR-3): > 100 µM (inactive)
- GI50 (HCC 2998): > 100 µM (inactive)
- GI50 (U-251): > 100 µM (inactive)
- GI50 (RXF 393): > 100 µM (inactive)
- GI50 (TK-10): > 100 µM (inactive)
- GI50 (KM-20L2): > 100 µM (inactive)
- GI50 (RPMI-8226): > 100 µM (inactive)
- GI50 (SK-MEL-5): > 100 µM (inactive)
- GI50 (UACC-62): > 100 µM (inactive)
- GI50 (UO-31): > 100 µM (inactive)
- GI50 (NCI-H23): > 100 µM (inactive)
- GI50 (HCT-15): > 100 µM
- GI50 (SW-620): > 100 µM (inactive)
- GI50 (EKVX): > 100 µM (inactive)
- GI50 (CAKI-1): > 100 µM (inactive)

Structure (SMILES): NC1CCCCC1.O=C(O)C1(P(=O)(O)O)CC1
- GI50 (786-0): > 100 µM (inactive)
- GI50 (OVCAR-8): > 100 µM (inactive)
- GI50 (OVCAR-3): > 100 µM (inactive)
- GI50 (HCC 2998): > 100 µM (inactive)
- GI50 (U-251): > 100 µM (inactive)
- GI50 (RXF 393): > 100 µM (inactive)
- GI50 (TK-10): > 100 µM (inactive)
- GI50 (KM-20L2): > 100 µM (inactive)
- GI50 (RPMI-8226): > 100 µM (inactive)
- GI50 (SK-MEL-5): > 100 µM (inactive)
- GI50 (UACC-62): > 100 µM (inactive)
- GI50 (UO-31): > 100 µM (inactive)
- GI50 (NCI-H23): > 100 µM (inactive)
- GI50 (HCT-15): > 100 µM
- GI50 (SW-620): > 100 µM (inactive)
- GI50 (EKVX): > 100 µM (inactive)
- GI50 (CAKI-1): > 100 µM (inactive)

Structure (SMILES): CC1C=CC(C)C2(O)C(=O)NC(O)C12 (stereo not given)
- GI50 (786-0): > 100 µM (inactive)
- GI50 (OVCAR-8): > 100 µM (inactive)
- GI50 (HCC 2998): > 100 µM (inactive)
- GI50 (U-251): > 100 µM (inactive)
- GI50 (RXF 393): > 100 µM (inactive)
- GI50 (TK-10): > 100 µM (inactive)
- GI50 (KM-20L2): > 100 µM (inactive)
- GI50 (RPMI-8226): > 100 µM (inactive)
- GI50 (SK-MEL-5): > 100 µM (inactive)
- GI50 (UACC-62): > 100 µM (inactive)
- GI50 (UO-31): > 100 µM (inactive)
- GI50 (HCT-15): > 100 µM
- GI50 (SW-620): > 100 µM (inactive)
- GI50 (EKVX): > 100 µM (inactive)
- GI50 (CAKI-1): > 100 µM (inactive)

Structure (SMILES): CC(=O)OC1COC(n2c(=S)n(-c3ccc(C)cc3)c(=O)c3ccccc32)C(OC(C)=O)C1OC(C)=O (stereo not given)
- GI50 (786-0): > 100 µM (inactive)
- GI50 (OVCAR-8): 68.2 µM (inactive)
- GI50 (OVCAR-3): > 100 µM (inactive)
- GI50 (HCC 2998): > 100 µM (inactive)
- GI50 (U-251): > 100 µM (inactive)
- GI50 (RXF 393): 67.3 µM (inactive)
- GI50 (KM-20L2): > 100 µM (inactive)
- GI50 (RPMI-8226): 47.5 µM (inactive)
- GI50 (SK-MEL-5): > 100 µM (inactive)
- GI50 (UACC-62): > 100 µM (inactive)
- GI50 (UO-31): > 100 µM (inactive)
- GI50 (NCI-H23): > 100 µM (inactive)
- GI50 (HCT-15): > 100 µM
- GI50 (SW-620): > 100 µM (inactive)
- GI50 (EKVX): > 100 µM (inactive)
- GI50 (CAKI-1): > 100 µM (inactive)

Structure (SMILES): O=C(CC(=O)c1cccc2ccccc12)C(=O)Nc1nccs1
- GI50 (786-0): > 100 µM (inactive)
- GI50 (OVCAR-8): > 100 µM (inactive)
- GI50 (OVCAR-3): > 100 µM (inactive)
- GI50 (HCC 2998): > 100 µM (inactive)
- GI50 (U-251): > 100 µM (inactive)
- GI50 (RXF 393): > 100 µM (inactive)
- GI50 (TK-10): > 100 µM (inactive)
- GI50 (KM-20L2): > 100 µM (inactive)
- GI50 (RPMI-8226): > 100 µM (inactive)
- GI50 (SK-MEL-5): > 100 µM (inactive)
- GI50 (UACC-62): > 100 µM (inactive)
- GI50 (UO-31): > 100 µM (inactive)
- GI50 (NCI-H23): > 100 µM (inactive)
- GI50 (HCT-15): > 100 µM
- GI50 (SW-620): > 100 µM (inactive)
- GI50 (EKVX): > 100 µM (inactive)
- GI50 (CAKI-1): > 100 µM (inactive)

Structure (SMILES): Cc1[nH]c2ccccc2c1C1Cc2ccccc2N1C(=O)/C(Cl)=C/c1ccccc1 (stereo not given)
- GI50 (786-0): > 100 µM (inactive)
- GI50 (OVCAR-8): > 100 µM (inactive)
- GI50 (OVCAR-3): > 100 µM (inactive)
- GI50 (HCC 2998): > 100 µM (inactive)
- GI50 (U-251): > 100 µM (inactive)
- GI50 (RXF 393): 7.83 µM (inactive)
- GI50 (TK-10): > 73.3 µM (inactive)
- GI50 (KM-20L2): > 100 µM (inactive)
- GI50 (RPMI-8226): > 72.6 µM (inactive)
- GI50 (SK-MEL-5): > 100 µM (inactive)
- GI50 (UACC-62): > 100 µM (inactive)
- GI50 (UO-31): 16.3 µM (inactive)
- GI50 (NCI-H23): 48.4 µM (inactive)
- GI50 (HCT-15): > 100 µM
- GI50 (SW-620): > 100 µM (inactive)
- GI50 (EKVX): > 48.9 µM (inactive)
- GI50 (CAKI-1): 50.6 µM (inactive)

Structure (SMILES): Cc1cc(N(CCC#N)S(=O)(=O)c2ccccc2)ccc1C=O
- GI50 (786-0): > 100 µM (inactive)
- GI50 (OVCAR-8): > 100 µM (inactive)
- GI50 (OVCAR-3): > 100 µM (inactive)
- GI50 (HCC 2998): > 100 µM (inactive)
- GI50 (U-251): > 100 µM (inactive)
- GI50 (RXF 393): > 100 µM (inactive)
- GI50 (KM-20L2): > 100 µM (inactive)
- GI50 (RPMI-8226): > 100 µM (inactive)
- GI50 (SK-MEL-5): > 100 µM (inactive)
- GI50 (UACC-62): > 100 µM (inactive)
- GI50 (UO-31): > 100 µM (inactive)
- GI50 (NCI-H23): > 100 µM (inactive)
- GI50 (HCT-15): > 100 µM
- GI50 (SW-620): > 100 µM (inactive)
- GI50 (EKVX): > 100 µM (inactive)
- GI50 (CAKI-1): > 100 µM (inactive)
